{"source": "PubChem BioAssay (NCI)", "assay_in_all_cases": "DTP human tumour cell line panel, 48 h", "key": {"A549 NSCLC": {"tested_on": "A549 NSCLC"}, "NCI-H460 lung": {"tested_on": "NCI-H460 lung"}, "IGROV1 ovarian": {"tested_on": "IGROV1 ovarian"}, "HOP-62 NSCLC": {"tested_on": "HOP-62 NSCLC"}, "A498 renal": {"tested_on": "A498 renal"}, "HCT-116 colon": {"tested_on": "HCT-116 colon"}, "SF-268 CNS": {"tested_on": "SF-268 CNS"}, "HCC-2998 colon": {"tested_on": "HCC-2998 colon"}, "MDA-N": {"tested_on": "MDA-N"}, "SK-MEL-5 melanoma": {"tested_on": "SK-MEL-5 melanoma"}, "MALME-3M melanoma": {"tested_on": "MALME-3M melanoma"}, "U251 CNS": {"tested_on": "U251 CNS"}, "OVCAR-4 ovarian": {"tested_on": "OVCAR-4 ovarian"}, "BT-549 breast": {"tested_on": "BT-549 breast"}, "SK-MEL-28 melanoma": {"tested_on": "SK-MEL-28 melanoma"}, "OVCAR-3 ovarian": {"tested_on": "OVCAR-3 ovarian"}, "HT29 colon": {"tested_on": "HT29 colon"}, "MDA-MB-435": {"tested_on": "MDA-MB-435"}, "NCI-H226 lung": {"tested_on": "NCI-H226 lung"}, "T-47D breast": {"tested_on": "T-47D breast"}, "MCF7 breast": {"tested_on": "MCF7 breast"}, "RPMI-8226 leukemia": {"tested_on": "RPMI-8226 leukemia"}, "MDA-MB-231 breast": {"tested_on": "MDA-MB-231 breast"}, "ACHN renal": {"tested_on": "ACHN renal"}, "KM12 colon": {"tested_on": "KM12 colon"}, "HL-60(TB) leukemia": {"tested_on": "HL-60(TB) leukemia"}, "HS 578T breast": {"tested_on": "HS 578T breast"}, "NCI/ADR-RES ovarian": {"tested_on": "NCI/ADR-RES ovarian"}, "M14 melanoma": {"tested_on": "M14 melanoma"}, "COLO 205 colon": {"tested_on": "COLO 205 colon"}, "SW-620 colon": {"tested_on": "SW-620 colon"}, "MOLT-4 leukemia": {"tested_on": "MOLT-4 leukemia"}, "NCI-H23 lung": {"tested_on": "NCI-H23 lung"}, "LOX IMVI melanoma": {"tested_on": "LOX IMVI melanoma"}, "SN12C renal": {"tested_on": "SN12C renal"}, "DU-145 prostate": {"tested_on": "DU-145 prostate"}, "NCI-H522 lung": {"tested_on": "NCI-H522 lung"}, "CAKI-1 renal": {"tested_on": "CAKI-1 renal"}, "TK-10 renal": {"tested_on": "TK-10 renal"}, "PC-3 prostate": {"tested_on": "PC-3 prostate"}, "UACC-62 melanoma": {"tested_on": "UACC-62 melanoma"}, "UO-31 renal": {"tested_on": "UO-31 renal"}, "786-0 renal": {"tested_on": "786-0 renal"}, "SK-OV-3 ovarian": {"tested_on": "SK-OV-3 ovarian"}, "HCT-15 colon": {"tested_on": "HCT-15 colon"}, "SK-MEL-2 melanoma": {"tested_on": "SK-MEL-2 melanoma"}, "SF-539 CNS": {"tested_on": "SF-539 CNS"}, "SF-295 CNS": {"tested_on": "SF-295 CNS"}, "RXF 393 renal": {"tested_on": "RXF 393 renal"}, "CCRF-CEM leukemia": {"tested_on": "CCRF-CEM leukemia"}, "HOP-92 NSCLC": {"tested_on": "HOP-92 NSCLC"}, "OVCAR-8 ovarian": {"tested_on": "OVCAR-8 ovarian"}, "OVCAR-5 ovarian": {"tested_on": "OVCAR-5 ovarian"}, "SNB-75 CNS": {"tested_on": "SNB-75 CNS"}, "EKVX NSCLC": {"tested_on": "EKVX NSCLC"}}, "note": "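A five-concentration, 48-hour dose response in 96-well plates underlies each endpoint, interpolated linearly between surrounding concentrations. The concentration for full growth arrest is given as TGI.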", "data": [{"compound": "CCOc1ccccc1N=NC1C(=O)N(C(=O)CC(=O)Nc2ccccc2OC)N=C1C", "note": "(stereo not given)", "values": [{"measurement": "TGI", "setting": "A549 NSCLC", "result": "> 100", "unit": "µM"}, {"measurement": "TGI", "setting": "NCI-H460 lung", "result": "> 100", "unit": "µM"}, {"measurement": "TGI", "setting": "IGROV1 ovarian", "result": "> 100", "unit": "µM"}, {"measurement": "TGI", "setting": "HOP-62 NSCLC", "result": 39.4, "unit": "µM"}, {"measurement": "TGI", "setting": "A498 renal", "result": "> 100", "unit": "µM"}, {"measurement": "TGI", "setting": "HCT-116 colon", "result": "> 100", "unit": "µM"}, {"measurement": "TGI", "setting": "SF-268 CNS", "result": 68.8, "unit": "µM"}, {"measurement": "TGI", "setting": "HCC-2998 colon", "result": "> 100", "unit": "µM"}, {"measurement": "TGI", "setting": "MDA-N", "result": "> 100", "unit": "µM"}, {"measurement": "TGI", "setting": "SK-MEL-5 melanoma", "result": "> 100", "unit": "µM"}, {"measurement": "TGI", "setting": "MALME-3M melanoma", "result": "> 100", "unit": "µM"}, {"measurement": "TGI", "setting": "U251 CNS", "result": 95.6, "unit": "µM"}, {"measurement": "TGI", "setting": "OVCAR-4 ovarian", "result": "> 100", "unit": "µM"}, {"measurement": "TGI", "setting": "BT-549 breast", "result": "> 100", "unit": "µM"}, {"measurement": "TGI", "setting": "SK-MEL-28 melanoma", "result": "> 100", "unit": "µM"}, {"measurement": "TGI", "setting": "OVCAR-3 ovarian", "result": "> 100", "unit": "µM"}, {"measurement": "TGI", "setting": "HT29 colon", "result": "> 100", "unit": "µM"}, {"measurement": "TGI", "setting": "MDA-MB-435", "result": "> 100", "unit": "µM"}, {"measurement": "TGI", "setting": "NCI-H226 lung", "result": "> 100", "unit": "µM"}, {"measurement": "TGI", "setting": "T-47D breast", "result": "> 100", "unit": "µM"}, {"measurement": "TGI", "setting": "MCF7 breast", "result": "> 100", "unit": "µM"}, {"measurement": "TGI", "setting": "RPMI-8226 leukemia", "result": "> 100", "unit": "µM"}, {"measurement": "TGI", "setting": "MDA-MB-231 breast", "result": "> 100", "unit": "µM"}, {"measurement": "TGI", "setting": "ACHN renal", "result": "> 100", "unit": "µM"}, {"measurement": "TGI", "setting": "KM12 colon", "result": "> 100", "unit": "µM"}, {"measurement": "TGI", "setting": "HL-60(TB) leukemia", "result": "> 100", "unit": "µM"}, {"measurement": "TGI", "setting": "HS 578T breast", "result": 12.2, "unit": "µM"}, {"measurement": "TGI", "setting": "NCI/ADR-RES ovarian", "result": "> 100", "unit": "µM"}, {"measurement": "TGI", "setting": "M14 melanoma", "result": "> 100", "unit": "µM"}, {"measurement": "TGI", "setting": "COLO 205 colon", "result": "> 100", "unit": "µM"}, {"measurement": "TGI", "setting": "SW-620 colon", "result": "> 100", "unit": "µM"}, {"measurement": "TGI", "setting": "MOLT-4 leukemia", "result": "> 100", "unit": "µM"}, {"measurement": "TGI", "setting": "NCI-H23 lung", "result": "> 100", "unit": "µM"}, {"measurement": "TGI", "setting": "LOX IMVI melanoma", "result": "> 100", "unit": "µM"}, {"measurement": "TGI", "setting": "SN12C renal", "result": "> 100", "unit": "µM"}, {"measurement": "TGI", "setting": "DU-145 prostate", "result": "> 100", "unit": "µM"}, {"measurement": "TGI", "setting": "NCI-H522 lung", "result": "> 100", "unit": "µM"}, {"measurement": "TGI", "setting": "CAKI-1 renal", "result": "> 100", "unit": "µM"}, {"measurement": "TGI", "setting": "TK-10 renal", "result": "> 100", "unit": "µM"}, {"measurement": "TGI", "setting": "PC-3 prostate", "result": "> 100", "unit": "µM"}, {"measurement": "TGI", "setting": "UACC-62 melanoma", "result": "> 100", "unit": "µM"}, {"measurement": "TGI", "setting": "UO-31 renal", "result": 68.2, "unit": "µM"}, {"measurement": "TGI", "setting": "786-0 renal", "result": "> 100", "unit": "µM"}, {"measurement": "TGI", "setting": "SK-OV-3 ovarian", "result": 94.3, "unit": "µM"}, {"measurement": "TGI", "setting": "HCT-15 colon", "result": 79.8, "unit": "µM"}, {"measurement": "TGI", "setting": "SK-MEL-2 melanoma", "result": "> 100", "unit": "µM"}, {"measurement": "TGI", "setting": "SF-539 CNS", "result": "> 100", "unit": "µM"}, {"measurement": "TGI", "setting": "SF-295 CNS", "result": 55.6, "unit": "µM"}, {"measurement": "TGI", "setting": "RXF 393 renal", "result": 81.5, "unit": "µM"}, {"measurement": "TGI", "setting": "CCRF-CEM leukemia", "result": "> 100", "unit": "µM"}, {"measurement": "TGI", "setting": "HOP-92 NSCLC", "result": 56.8, "unit": "µM"}, {"measurement": "TGI", "setting": "OVCAR-8 ovarian", "result": "> 100", "unit": "µM"}, {"measurement": "TGI", "setting": "OVCAR-5 ovarian", "result": "> 100", "unit": "µM"}, {"measurement": "TGI", "setting": "SNB-75 CNS", "result": 42.1, "unit": "µM"}, {"measurement": "TGI", "setting": "EKVX NSCLC", "result": 21.8, "unit": "µM"}]}]}
